Laboratory results as given in patent publication US20230357271A1, “MACROCYCLIC COMPOUND” (Asahi Kasei Pharma Corporation, priority 2020, published 2023).
Where two headings read alike, the source gives them in different places.

How the values were obtained:
[1] = 14-membered ring
[2] = tested on: human acute monocytic leukemia cell strain THP-1; experiment: LPS-stimulated TNFα production inhibition test using THP-1 cells; type: cell-based; conditions: LPS 2.5 ng/mL, TNFα by HTRF
Description: By the THP-1 assay, influence of a test compound on the TNFα production induced by LPS stimulation can be evaluated. The THP-1 cells (ATCC, Cat. TIB-202) were inoculated on a 96-well plate at a density of 1 × 10^5 cells/160 µL/well, a test compound was added in a volume of 20 µL, and the plate was incubated at 37° C. for 1 hour in a 5% CO2 incubator. Then, LPS in a volume of 20 µL (final concentration 2.5 ng/mL, Sigma, Cat. L2630) was added, and the plate was further incubated for 4 hours. After the incubation, the plate was centrifuged, and 100 µL of the supernatant was taken from each well, and used for evaluation of the amount of TNFα using HTRF (Cisbio, Cat. 62TNFPEB). In the measurement of the amount of TNFα, the supernatant was diluted twice with the medium, and then added to wells of a 384-well plate in a volume of 10 µL, then anti-TNFα-cryptate (5 µL), and anti-TNFα-XL665 (5 µL) were added, and the plate was left standing overnight. The fluorescence intensity ratio for the wavelengths of 620 and 665 nm (620 nm/665 nm) was measured with a microplate reader, and the amount of TNFα in the supernatant was calculated by using a calibration curve. The TNFα production suppression ratio observed with no addition of LPS was defined to be 100%, the TNFα production suppression ratio observed with no addition of the test compound was defined to be 0%, and IC50 of the test compound was calculated by using the 4-parameter logistic model of the data analysis software XLfit (ID Business Solutions Ltd.).
When the measurement was performed in multiplicate, the results are represented with average values. The values were rounded to the fourth decimal place.

[3] = molecular target: human IRAK-4 (Homo sapiens (Human), UniProt Q9NWZ3); experiment: Measurement of human IRAK-4 inhibitory activity (TR-FRET); type: biochemical; conditions: 1 nM IRAK-4, 0.5 µM peptide substrate, 10 µM ATP, 23° C., 30 minutes
human IRAK-4, sequence (Q9NWZ3 whole entry): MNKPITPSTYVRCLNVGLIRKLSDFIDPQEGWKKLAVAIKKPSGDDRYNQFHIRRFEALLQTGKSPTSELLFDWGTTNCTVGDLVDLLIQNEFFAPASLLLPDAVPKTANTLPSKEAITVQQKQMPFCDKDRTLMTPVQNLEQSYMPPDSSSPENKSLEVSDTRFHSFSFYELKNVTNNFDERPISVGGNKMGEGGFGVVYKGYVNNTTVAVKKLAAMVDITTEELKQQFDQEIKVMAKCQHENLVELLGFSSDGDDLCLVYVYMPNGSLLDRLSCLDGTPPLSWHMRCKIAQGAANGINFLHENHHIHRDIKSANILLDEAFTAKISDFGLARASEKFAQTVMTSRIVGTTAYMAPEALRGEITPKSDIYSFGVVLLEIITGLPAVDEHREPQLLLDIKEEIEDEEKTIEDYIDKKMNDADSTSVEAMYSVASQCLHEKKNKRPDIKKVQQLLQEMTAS
Description: For the measurement of the activity of the human IRAK-4 (Invitrogen, Cat. PV3362), phosphorylation of the IRAK-4 peptide substrate (biotin-KKKKRFSFKKSFKC) by the enzyme in the presence of 10 µM ATP (Sigma-Aldrich, Cat. A7699) was measured by the TR-FRET method. The enzymatic reaction was performed in a reaction buffer containing 50 mM HEPES (pH 7.2), 1 mM DTT, 0.1 mM Na3VO4, 5 mM MgCl2, 1 mM MnCl2, and 0.1% bovine serum albumin. For the measurement of the IRAK-4 inhibitory activity, a test compound was added to the reaction buffer containing 1 nM IRAK-4, 0.5 µM peptide substrate, and 10 µM ATP, and the mixture was incubated at 23° C. for 30 minutes. Then, a detection solution containing an antibody labeled with europium cryptate (0.3 µg/mL, the antibody was prepared by using the IRAK-4 peptide substrate as the antigen), streptavidin-XL665 (2 µg/mL, CisBio, Cat. 610SAXLB), 50 mM HEPES (pH 7.2), 0.1% BSA, 120 mM KF, and 66.7 mM EDTA (all the concentrations of the reagents are final concentrations) was added to terminate the reaction, and then the mixture was further incubated at 23° C. for 60 minutes. Fluorescence intensity was measured at wavelengths of 665 nm and 620 nm with a microplate reader, and the enzymatic activity was calculated as the ratio of fluorescence intensities at 665 nm and 620 nm (665 nm/620 nm).
When the measurement was performed in multiplicate, the results are represented with average values.

CC1CC2C[C@@H](C(=O)NCC/C=C/c3c(OCc4ccccc4)ccc4ncc(cc34)N2)N1C (stereo partly drawn)
ring closure, yield of all isomers (from CC1CC(N)C[C@@H](C(=O)NCC/C=C/c2c(OCc3ccccc3)ccc3ncc(Br)cc23)N1C, cn_pd bond, Pd2(dba)3 / XPhos / sodium phenoxide, 1,4-dioxane, 97.4 mM, 101.0 °C, 14.0 h): 75%

CN1CCC2CC1(C)C(=O)NCC(F)COc1c(OCc3ccccc3)ccc3ncc(cc13)N2 (stereo not drawn)
ring closure, yield of all isomers (from CN1CCC(N)CC1(C)C(=O)NCC(F)COc1c(OCc2ccccc2)ccc2ncc(Br)cc12, cn_pd bond, Pd2(dba)3 / XPhos / sodium phenoxide, 1,4-dioxane, 107.0 mM, 101.0 °C, 14.0 h): 32%

CC1CC2C[C@@H](C(=O)NCCC=Cc3c(OCc4ccccc4)ccc4ncc(cc34)N2)N1C (stereo partly drawn)
ring closure, isolated yield ([1]; from CC1CC(N)C[C@@H](C(=O)NCC/C=C/c2c(OCc3ccccc3)ccc3ncc(Br)cc23)N1C, cn_pd bond, Pd2(dba)3/XPhos/NaOPh, 1,4-dioxane, 97.4 mM, 14.0 h): 75%

CC(C)(C)OC(=O)N1CC[C@H]2C[C@H]1C(=O)NCCCOc1c(OCc3ccccc3)ccc3ncc(cc13)O2
ring closure, isolated yield ([1]; from CC(C)(C)OC(=O)N1CC[C@@H](O)C[C@H]1C(=O)NCCCOc1c(OCc2ccccc2)ccc2ncc(O)cc12, ether bond, PPh3/DTBAD, toluene, 11.0 mM, 1.5 h): 72%

CC(C)(C)OC(=O)N1CC[C@H]2C[C@H]1C(=O)NCC(F)COc1c(OCc3ccccc3)ccc3ncc(cc13)N2 (stereo partly drawn)
ring closure, yield of all isomers (from CC(C)(C)OC(=O)N1CC[C@H](Nc2cnc3ccc(OCc4ccccc4)c(O)c3c2)C[C@H]1C(=O)NCC(F)CO, ether bond, PPh3 / di-tert-butyl azodicarboxylate, toluene, 4.76 mM, 25.0 °C, 1.0 h): 67%
ring closure, isolated yield ([1]; from CC(C)(C)OC(=O)N1CC[C@H](Nc2cnc3ccc(OCc4ccccc4)c(O)c3c2)C[C@H]1C(=O)NCC(F)CO, ether bond, PPh3/DTBAD, toluene, 4.84 mM, 25.0 °C, 1.0 h): 67%

Cc1ncc(-c2ccc3ncc4cc3c2OCC(F)CNC(=O)[C@@H]2C[C@H](CCN2C(C)C)N4)cn1 (stereo partly drawn) [a-02-13]
IC50 ([2]; Homo sapiens, THP-1, 4 h): 0.048 µM
IC50 [3]: 1.12 nM

CCC(O)COCc1ncc(-c2ccc3ncc4nc3c2OCCCNC(=O)[C@@H]2C[C@H](CCN2C)N4)cn1 (stereo partly drawn) [a-01-17]
IC50 ([2]; Homo sapiens, THP-1, 4 h): 0.099 µM
IC50 [3]: 3.04 nM

CN1CC[C@H]2C[C@H]1C(=O)NCCCCCOc1c(-c3cncnc3)ccc3ncc(nc13)N2 [a-01-39]
IC50 ([2]; Homo sapiens, THP-1, 4 h): 0.204 µM
IC50 [3]: 5.12 nM

Cc1ncc(-c2ccc3ncc4cc3c2OCCCOC(=O)[C@@H]2C[C@H](CCN2)N4)cn1 [a-02-18]
IC50 ([2]; Homo sapiens, THP-1, 4 h): 0.081 µM
IC50 [3]: 1.66 nM

CCCOCc1ncc(-c2ccc3ncc4nc3c2OCCCCCNC(=O)[C@@H]2C[C@H](CCN2C)N4)cn1 [a-01-27]
IC50 ([2]; Homo sapiens, THP-1, 4 h): 0.145 µM
IC50 [3]: 4.25 nM

Cc1ncc(-c2ccc3ncc4cc3c2OCCCOC(=O)C2CC(CC(C)N2C)N4)cn1 (stereo not drawn) [a-02-07]
IC50 ([2]; Homo sapiens, THP-1, 4 h): 0.033 µM
IC50 [3]: 2.04 nM

CN1CC[C@H]2C[C@H]1C(=O)NCC1(CCC1)COc1c(-c3cnc(CO)s3)ccc3ncc(nc13)N2 [a-01-44]
IC50 ([2]; Homo sapiens, THP-1, 4 h): 0.21 µM
IC50 [3]: 2.36 nM

CN1CC[C@H]2C[C@H]1C(=O)NCCCOc1c(-c3ccns3)ccc3ncc(nc13)N2 [a-01-01]
IC50 ([2]; Homo sapiens, THP-1, 4 h): 0.028 µM
IC50 [3]: 1.63 nM

CN1CC[C@H]2C[C@H]1C(=O)OCCCOc1c(-c3cnc(CO)nc3)ccc3ncc(cc13)N2 [a-02-15]
IC50 ([2]; Homo sapiens, THP-1, 4 h): 0.064 µM
IC50 [3]: 2.23 nM

CCN1CC[C@H]2C[C@H]1C(=O)NCCCOc1c(-c3cnc(CO)s3)ccc3ncc(nc13)N2 [a-01-16]
IC50 ([2]; Homo sapiens, THP-1, 4 h): 0.092 µM
IC50 [3]: 1.25 nM

CC(C)(C)OC(=O)N1CC[C@H]2C[C@H]1C(=O)NCCCOc1c(Br)ccc3ncc(nc13)N2
ring closure, yield of all isomers (from CC(C)(C)OC(=O)N1CC[C@H](Nc2cnc3ccc(Br)c(O)c3n2)C[C@H]1C(=O)NCCCO, ether bond, PPh3 / di-tert-butyl azodicarboxylate, tetrahydrofuran, 4.91 mM, 25.0 °C, 12.0 h): 61%
ring closure, yield of all isomers (from CC(C)(C)OC(=O)N1CC[C@H](Nc2cnc3ccc(Br)c(O)c3n2)C[C@H]1C(=O)NCCCO, ether bond, PPh3 / di-tert-butyl azodicarboxylate, tetrahydrofuran, 4.92 mM, 25.0 °C, 2.0 h): 70%
ring closure, isolated yield ([1]; from CC(C)(C)OC(=O)N1CC[C@H](Nc2cnc3ccc(Br)c(O)c3n2)C[C@H]1C(=O)NCCCO, ether bond, PPh3/DTBAD, THF, 5.0 mM, 25.0 °C, 2.0 h): 70%
ring closure, isolated yield ([1]; from CC(C)(C)OC(=O)N1CC[C@H](Nc2cnc3ccc(Br)c(O)c3n2)C[C@H]1C(=O)NCCCO, ether bond, PPh3/DTBAD, THF, 5.0 mM, 25.0 °C, 12.0 h): 61%

Cc1ncc(-c2ccc3ncc4nc3c2OCC(F)COC(=O)[C@@H]2C[C@H](CCN2C)N4)cn1 (stereo partly drawn) [a-01-20]
IC50 ([2]; Homo sapiens, THP-1, 4 h): 0.113 µM
IC50 [3]: 1.15 nM

O=C1OCCCOc2c(-c3cnc(CO[C@H]4CCC[C@@H]4O)nc3)ccc3ncc(cc23)N[C@H]2CCN[C@H]1C2 [a-02-03]
IC50 ([2]; Homo sapiens, THP-1, 4 h): 0.013 µM
IC50 [3]: 2.51 nM

CCCOCc1ncc(-c2ccc3ncc4cc3c2OCC(F)CNC(=O)[C@@H]2C[C@H](CCN2C)N4)cn1 (stereo partly drawn) [a-02-02, (3^2S,3^4S)-7-Fluoro-3^1-methyl-1^6-(2-(propoxymethyl)pyrimidin-5-yl)-9-oxa-2,5-diaza-1(3,5)-qunolina-3(4,2)-piperidinacyclononaphan-4-one]
IC50 ([2]; Homo sapiens, THP-1, 4 h): 0.013 µM
IC50 [3]: 1.09 nM

CCCOCc1ncc(-c2ccc3ncc4nc3c2OCC(F)(F)CNC(=O)[C@@H]2C[C@H](CCN2C)N4)cn1 [a-01-23]
IC50 ([2]; Homo sapiens, THP-1, 4 h): 0.124 µM
IC50 [3]: 1.21 nM

CN1CC[C@H]2C[C@H]1C(=O)NCC1(CC1)COc1c(-c3cnc(CO)s3)ccc3ncc(nc13)N2 [a-01-02]
IC50 ([2]; Homo sapiens, THP-1, 4 h): 0.044 µM
IC50 [3]: 0.89 nM

CN1CC[C@H]2C[C@H]1C(=O)NCC(F)(F)COc1c(-c3cnc(CO)s3)ccc3ncc(nc13)N2 [a-01-22]
IC50 ([2]; Homo sapiens, THP-1, 4 h): 0.118 µM
IC50 [3]: 0.89 nM

Cc1ncc(-c2ccc3ncc4nc3c2OCC2(CC2)COC(=O)[C@@H]2C[C@H](CCN2C)N4)cn1 [a-01-33]
IC50 ([2]; Homo sapiens, THP-1, 4 h): 0.17 µM
IC50 [3]: 4.79 nM

CCCOCc1ncc(-c2ccc3ncc4nc3c2OCCC(CC)CNC(=O)[C@@H]2C[C@H](CCN2C)N4)cn1 (stereo partly drawn) [a-01-37]
IC50 ([2]; Homo sapiens, THP-1, 4 h): 0.189 µM
IC50 [3]: 4.52 nM

Cc1ncc(-c2ccc3ncc4nc3c2OCC(F)CNC(=O)[C@@H]2C[C@H](CCN2C)N4)cn1 (stereo partly drawn) [a-01-19]
IC50 ([2]; 4 hours): 0.113 µM
IC50 [3]: 1.6 nM

CN1CC[C@H]2C[C@H]1C(=O)NCC1(CCC1)COc1c(-c3cncnc3)ccc3ncc(nc13)N2 [a-01-29]
IC50 ([2]; Homo sapiens, THP-1, 4 h): 0.15 µM
IC50 [3]: 4.14 nM

CCCOCc1ncc(-c2ccc3ncc4nc3c2OCCC(F)CNC(=O)[C@@H]2C[C@H](CCN2C)N4)cn1 (stereo partly drawn) [a-01-31]
IC50 ([2]; Homo sapiens, THP-1, 4 h): 0.163 µM
IC50 [3]: 3.42 nM

CCCOCc1ncc(-c2ccc3ncc4nc3c2OCCC(C)CNC(=O)[C@@H]2C[C@H](CCN2C)N4)cn1 (stereo partly drawn) [a-01-12]
IC50 ([2]; Homo sapiens, THP-1, 4 h): 0.075 µM
IC50 [3]: 1.75 nM

Cc1ncc(-c2ccc3ncc4nc3c2OCC2(CC2)CNC(=O)[C@@H]2C[C@H](CCN2C)N4)cn1 [a-01-25]
IC50 ([2]; Homo sapiens, THP-1, 4 h): 0.141 µM
IC50 [3]: 4.43 nM

CCCOCc1ncc(-c2ccc3ncc4nc3c2OCCCN(C)C(=O)[C@@H]2C[C@H](CCN2C)N4)cn1 [a-01-38]
IC50 ([2]; Homo sapiens, THP-1, 4 h): 0.199 µM
IC50 [3]: 6.73 nM

CCCOCc1ncc(-c2ccc3ncc4nc3c2OCC(F)CNC(=O)[C@@H]2C[C@H](CCN2C)N4)cn1 (stereo partly drawn) [a-01-05]
IC50 ([2]; 4 hours): 0.048 µM
IC50 [3]: 1.37 nM

CN1CC[C@H]2C[C@H]1C(=O)NCCCOc1c(-c3cnc(COC4CCC4)nc3)ccc3ncc(nc13)N2 [a-01-13]
IC50 ([2]; Homo sapiens, THP-1, 4 h): 0.076 µM
IC50 [3]: 2.95 nM

CC(C)(C)OC(=O)N1CC[C@H]2C[C@H]1C(=O)NCCCCc1c(OCc3ccccc3)ccc3ncc(cc13)N2
ring closure, yield of all isomers (from CC(C)(C)OC(=O)N1CC[C@H](N)C[C@H]1C(=O)NCCCCc1c(OCc2ccccc2)ccc2ncc(Br)cc12, cn_pd bond, tBuBrettPhos Pd G3 / phosphazene base P2-Et, toluene, 29.3 mM, 25.0 °C): 39%
